# Source: patent US20250280827A1, “An antifungal composition comprising natamycin and at least one insecticide” (priority 2021, published 2025)
# Assays:
# Format in all cases: in vivo
# [1] = system: Colletotrichum spp.; assay: Antifungal effect against Colletotrichum infection on wounded skin of pepper fruits (Colby synergy)
# Excerpt: wherein X and Y are the observed antifungal activities (in %) of the individual active ingredients x and y, respectively. If the observed antifungal activity (O in %) of the combination exceeds the expected antifungal activity (E in %) of the combination and the synergy factor O/E is thus >1.0, the combined application of the active ingredients leads to a synergistic antifungal effect. […]
# For the treatment, 5 wounds per pepper side were done as previously described. In addition, one wound was done as negative control. Depending on the number of sides of the pepper, 3 to 4 treatments were done per paprika. Per wound 10 μl of treatment was placed on the wound. The treatments were let to dry in a down flow cabinet for about 30 minutes. After drying 5 μl spore suspension at a concentration of 10^7 spores per ml were placed on the wounds. The fungus was isolated from Colletotrichum-infected plant material and identified using techniques known to the person skilled in the art. The pepper were placed as described previously in a transparent container, with the difference that the containers were then placed in a transparent plastic zipper bag. The bags with peppers were placed at room temperature and in the dark for two days. After that the size of the lesions were measured. Assessment of the infection area was 4 days after inoculation. Experiment was performed in 5-fold.
# (§1) The fungus was isolated from Colletotrichum-infected plant material and identified using techniques known to the person skilled in the art. Assessment of the infection area was performed 5 days after inoculation. Experiment was performed in 5-fold.
# as §1, with “The active ingredient imidacloprid was formulated as described in Table 2. Imidacloprid belonging to IRAC Group 4. The” for “The”
# The fungus was isolated from Colletotrichum-infected plant material and identified using techniques known to the person skilled in the art. Assessment of the efficacy was 5 days after inoculation. Experiment was performed in 5-fold.
# The fungus was isolated from Colletotrichum-infected plant material and identified using techniques known to the person skilled in the art. Assessment of the infection area was performed 6 days after inoculation. Experiment was performed in 5-fold.
# The fungus was isolated from Colletotrichum-infected plant material and identified using techniques known to the person skilled in the art. Assessment of the infection area was performed 4 days after inoculation. Experiment was performed in 5-fold.
# [2] = system: Botrytis cinerea; assay: Antifungal effect against Botrytis cinerea infection on wounded peel of banana fruits (Colby synergy)
# Excerpt: (§2) wherein X and Y are the observed antifungal activities (in %) of the individual active ingredients x and y, respectively. If the observed antifungal activity (O in %) of the combination exceeds the expected antifungal activity (E in %) of the combination and the synergy factor O/E is thus >1.0, the combined application of the active ingredients leads to a synergistic antifungal effect.
# (§3) Application: The broad bean pods were washed under tap water, and were subsequently surface sterilized by placing them in a 0.1% sodium hypochlorite solution for 5 minutes. The pods were then rinsed with tap water and dried. Transparent plastic containers were prepared by placing a piece of absorbing paper in the container and adding 25 ml of water, one container per treatment was used. The pods were cut in two, and two halve pods were incubated per box. The skin of broad bean pods was damaged with a needle, ø 2 mm and to a depth of about 3 mm into the fruit, with—depending on the size of the pod—2 to 4 wounds per half pod. In total, 6 wounds were incubated per treatment, of which 1 was used as a control. A volume of 20 microliter of a natamycin/insecticide composition, as presented herein above, was applied by pipette to each wound. The treatments were then left to air-dry. Once dried, a mycelium plug of Sclerotinia sclerotiorum was placed upside down on each wound, so that the mycelium was in direct contact with the wound. Per treatment 5 wounds were inoculated with the fungus, while the 6th and last wound was used as negative non-inoculated control. After inoculation, the containers were directly closed with a transparent plastic lid.
# The infection area was measured 5 days after inoculation.
# A few changes were made for the banana experiments: 5 wounds per banana were made, on each wound 40 microliter of treatments was pipetted. The treatments were then left to air-dry. Once dried, 2 microliter of a freshly prepared inoculum was pipetted on four of the wounds. The inoculum consists of […] potato dextrose broth (PDB) medium containing Botrytis cinerea spores at a concentration of 10^6 spores per ml. The fifth wound was used as negative non-inoculated control. Experiment was performed in 4-fold.
# Assessment of the infection area was performed 3 days after inoculation. Experiment was performed in 4-fold.
# Imidacloprid was formulated as described in Table 2. Assessment of the efficacy was 5 days after inoculation. Experiment was performed in 4-fold.
# [3] = system: Sclerotinia sclerotiorum; assay: Antifungal effect against Sclerotinia sclerotiorum infection on wounded skin of broad bean pods (rot area, Colby synergy)
# Excerpt: The Colby equation (Colby, 1967. Weeds 15:20-22) calculates the expected antifungal activity (E in %) of a combination comprising more than one active ingredients:
# as §2
# • 1) Control (without natamycin and lambda-cyhalothrin) • 2) Natamycin at a level of 15 ppm • 3) Lambda-cyhalothrin (in the product KARATE ZEON® of Syngenta) at a levels of 0.15 ppm, 0.6 ppm, 3 ppm and 15 ppm • 4) Natamycin at a level of 15 ppm combined with lambda-cyhalothrin at levels of 0.15 ppm, 0.6 ppm, 3 ppm or 15 ppm.
# Used pathogen: Sclerotinia sclerotiorum.
# as §3
# All pods were kept at room temperature (20° C.). Wounds of the pods were checked after 30 h of incubation.
# Replicates: All treatments for the broad bean pod experiment were performed on two individual pod halves resulting in 5 wounds per treatment, while a sixth wound served as control.
# The experiments were performed as described in Example 1.
# The experiments were performed as described in Example 1. Assessment of the infection area was 23 h after inoculation. Experiment was performed in 5-fold.
# The experiments were performed as described in Example 1. Thiamethoxam belongs to IRAC Group 4. Assessment of the infection area was 31 hours after inoculation. Experiment was performed in 5-fold.
# The experiments were performed as described in Example 1. The product SPECTRE® of company (Adama) containing the active ingredient chlorfenapyr belonging to IRAC Group 13 was tested. Assessment of the infection area was 23 hours after inoculation. Experiment was performed in 5-fold.
# [4] = natamycin:fipronil 0:0.01 ppm, 6 days after inoculation, Table 19
# [5] = natamycin:fipronil 0:0.04 ppm, 6 days after inoculation, Table 19
# [6] = natamycin:fipronil 0:1 ppm, 6 days after inoculation, Table 19
# [7] = natamycin-insecticide 0:0.004 ppm, 3 days after inoculation, Table 14B
# [8] = natamycin-insecticide 0:0.01 ppm, 3 days after inoculation, Table 14A
# [9] = natamycin-insecticide 0:0.04 ppm, 3 days after inoculation, Table 14A
# [10] = natamycin-insecticide 0:1 ppm, 3 days after inoculation, Table 14A
# [11] = natamycin-insecticide 0:0.01 ppm, 5 days after inoculation, Table 15
# [12] = natamycin-insecticide 0:0.04 ppm, 5 days after inoculation, Table 15
# [13] = natamycin-insecticide 0:1 ppm, 5 days after inoculation, Table 15
# [14] = natamycin-insecticide 0-0.15 ppm, 23 h after inoculation, Table 7
# [15] = natamycin-insecticide 0-0.6 ppm, 23 h after inoculation, Table 7
# [16] = natamycin-insecticide 0-3 ppm, 23 h after inoculation, Table 7
# [17] = natamycin-insecticide 0-15 ppm, 23 h after inoculation, Table 7
# [18] = natamycin-insecticide 0:0.01 ppm, 5 days after inoculation, Table 17
# [19] = natamycin-insecticide 0:0.04 ppm, 5 days after inoculation, Table 17
# [20] = natamycin-insecticide 0:1 ppm, 5 days after inoculation, Table 17
# [21] = natamycin-insecticide 0-0.15 ppm, 23 hours after inoculation, Table 9
# [22] = natamycin-insecticide 0-0.6 ppm, 23 hours after inoculation, Table 9
# [23] = natamycin-insecticide 0-3 ppm, 23 hours after inoculation, Table 9
# [24] = natamycin-insecticide 0-15 ppm, 23 hours after inoculation, Table 9
# [25] = natamycin-insecticide 0:0.004 ppm, 5 days after inoculation, Table 18B
# [26] = natamycin-insecticide 0:0.01 ppm, 5 days after inoculation, Table 18A
# [27] = natamycin-insecticide 0:0.04 ppm, 5 days after inoculation, Table 18A
# [28] = natamycin-insecticide 0:1 ppm, 5 days after inoculation, Table 18A
# [29] = natamycin-insecticide 0:0.01 ppm, 5 days after inoculation, Table 16
# [30] = natamycin-insecticide 0:0.04 ppm, 5 days after inoculation, Table 16
# [31] = natamycin-insecticide 0-0.15 ppm, 31 hours after inoculation, Table 8
# [32] = natamycin-insecticide 0-0.6 ppm, 31 hours after inoculation, Table 8
# [33] = natamycin-insecticide 0-3 ppm, 31 hours after inoculation, Table 8
# [34] = natamycin-insecticide 0-15 ppm, 31 hours after inoculation, Table 8
# [35] = natamycin:abamectin 0:0.01 ppm, 4 days after inoculation, Table 20
# [36] = natamycin:abamectin 0:0.04 ppm, 4 days after inoculation, Table 20
# [37] = natamycin-insecticide 0:0.01 ppm, 4 days after inoculation, Table 13
# [38] = natamycin-insecticide 0:0.04 ppm, 4 days after inoculation, Table 13
# [39] = natamycin-insecticide 0:1 ppm, 4 days after inoculation, Table 13
molecule,measurement,setting,value
"N#Cc1nn(-c2c(Cl)cc(C(F)(F)F)cc2Cl)c(N)c1[S+]([O-])C(F)(F)F (racemic) [fipronil, (±)-5-amino-1-(2,6-dichloro-α,α,α-trifluoro-p-tolyl)-4-trifluoromethyl sulfinylpyrazole-3-carbonitrile]",Avg infected area,[1]; [4],88.2 mm^2
same,Observed antifungal activity,[1]; [4],−76.1%
same,Avg infected area,[1]; [5],76.8 mm^2
same,Observed antifungal activity,[1]; [5],−53.4%
same,Avg infected area,[1]; [6],80.4 mm^2
same,Observed antifungal activity,[1]; [6],−60.5%
"CC1(C)[C@H](C(=O)O[C@H](C#N)c2cccc(Oc3ccccc3)c2)[C@@H]1C=C(Cl)Cl [alpha-cypermethrin, [(S)-cyano-(3-phenoxyphenyl)methyl] (1R,3R)-3-(2,2-dichloroethenyl)-2,2-dimethylcyclopropane-1-carboxylate]",Avg infected area,[2]; [7],6.2 mm2
same,Observed antifungal activity,[2]; [7],37.2%
same,Avg infected area,[2]; [8],9.0 mm2
same,Observed antifungal activity,[2]; [8],20.5%
same,Avg infected area,[2]; [9],9.1 mm2
same,Observed antifungal activity,[2]; [9],19.8%
same,Avg infected area,[2]; [10],9.9 mm2
same,Observed antifungal activity,[2]; [10],12.8%
same,Avg infected area,[1]; [11],44.8 mm2
same,Observed antifungal activity,[1]; [11],−6.1%
same,Avg infected area,[1]; [12],22.5 mm2
same,Observed antifungal activity,[1]; [12],46.7%
same,Avg infected area,[1]; [13],20.6 mm2
same,Observed antifungal activity,[1]; [13],51.2%
C/C=C(\C)C(=O)O[C@H]1C[C@@H](OC(C)=O)[C@@]2(C(=O)OC)CO[C@H]3[C@@H](O)[C@@](C)([C@]45O[C@@]4(C)[C@H]4C[C@@H]5O[C@@H]5OC=C[C@@]54O)[C@H]4[C@]1(CO[C@]4(O)C(=O)OC)[C@@H]32 [azadirachtin],Avg infected area,[3]; [14],80.2 mm2
same,Observed antifungal activity,[3]; [14],41.3%
same,Avg infected area,[3]; [15],82.0 mm2
same,Observed antifungal activity,[3]; [15],40%
same,Avg infected area,[3]; [16],98.3 mm2
same,Observed antifungal activity,[3]; [16],28.1%
same,Avg infected area,[3]; [17],123.1 mm2
same,Observed antifungal activity,[3]; [17],9.9%
"CNC(=O)c1cc(Cl)cc(C)c1NC(=O)c1cc(Br)nn1-c1ncccc1Cl [chlorantraniliprole, 5-bromo-N-[4-chloro-2-methyl-6-(methylcarbamoyl)phenyl]-2-(3-chloropyridin-2-yl) pyrazole-3-carboxamide]",Avg infected area,[1]; [18],38.8 mm2
same,Observed antifungal activity,[1]; [18],29.8%
same,Avg infected area,[1]; [19],55.6 mm2
same,Observed antifungal activity,[1]; [19],−0.7%
same,Avg infected area,[1]; [20],66.4 mm2
same,Observed antifungal activity,[1]; [20],−20.2%
CCOCn1c(-c2ccc(Cl)cc2)c(C#N)c(Br)c1C(F)(F)F [chlorfenapyr],Avg infected area,[3]; [21],86.9 mm2
same,Observed antifungal activity,[3]; [21],23.6%
same,Avg infected area,[3]; [22],71.3 mm2
same,Observed antifungal activity,[3]; [22],37.3%
same,Avg infected area,[3]; [23],92.3 mm2
same,Observed antifungal activity,[3]; [23],18.8%
same,Avg infected area,[3]; [24],94.9 mm2
same,Observed antifungal activity,[3]; [24],16.5%
"O=[N+]([O-])NC1=NCCN1Cc1ccc(Cl)nc1 [imidacloprid, N-[1-[(6-chloropyridin-3-yl)methyl]-4,5-dihydroimidazol-2-yl]nitramide]",Avg infected area,[2]; [25],16.6 mm2
same,Observed antifungal activity,[2]; [25],43.3%
same,Avg infected area,[2]; [26],35.6 mm2
same,Observed antifungal activity,[2]; [26],27.6%
same,Avg infected area,[2]; [27],53.2 mm2
same,Observed antifungal activity,[2]; [27],−8.3%
same,Avg infected area,[2]; [28],32.4 mm2
same,Observed antifungal activity,[2]; [28],34.1%
same,Avg infected area,[1]; [29],18.5 mm2
same,Observed antifungal activity,[1]; [29],56.3%
same,Avg infected area,[1]; [30],23.3 mm2
same,Observed antifungal activity,[1]; [30],44.7%
same,Avg infected area,"[1]; natamycin-insecticide 0:1 ppm, 5 days after inoculation, Table 16",27.9 mm2
"CN1COCN(Cc2cnc(Cl)s2)C1=N[N+](=O)[O-] [thiamethoxam, N-[3-[(2-chloro-1,3-thiazol-5-yl)methyl]-5-methyl-1,3,5-oxadiazinan-4-ylidene]nitramide]",Avg infected area,[3]; [31],250.6 mm2
same,Observed antifungal activity,[3]; [31],2.9%
same,Avg infected area,[3]; [32],270.9 mm2
same,Observed antifungal activity,[3]; [32],−4.9%
same,Avg infected area,[3]; [33],253.2 mm2
same,Observed antifungal activity,[3]; [33],1.9%
same,Avg infected area,[3]; [34],254.1 mm2
same,Observed antifungal activity,[3]; [34],1.6%
abamectin,Avg infected area,[1]; [35],29.0 mm2
same,Observed antifungal activity,[1]; [35],−29.3%
same,Avg infected area,[1]; [36],30.7 mm2
same,Observed antifungal activity,[1]; [36],−37.0%
emamectin benzoate [emamection benzoate],Avg infected area,[1]; [37],30.6 mm2
same,Observed antifungal activity,[1]; [37],−90.1%
same,Avg infected area,[1]; [38],16.6 mm2
same,Observed antifungal activity,[1]; [38],−3.5%
same,Avg infected area,[1]; [39],24 mm2
same,Observed antifungal activity,[1]; [39],−49.1%
